The results in this text go back to ChEMBL document CHEMBL1201862, “PubChem BioAssay data set” (2004).

Series [1] in a line: Luminescence Cell-Based Dose Confirmation HTS to Identify Activators of 5'UTR Stem-Loop Driven Alpha-Synuclein mRNA Translation in H4 Neuroglioblastoma Cells. [Related pubchem assays: 1829 (Project Summary), 1814 (Primary HTS)]. In kind it is functional.
Series [2] can be described thus: Luminescence Cell-Based Dose Response HTS to Identify Activators of Luciferase Translation or Activity in H4 […] Cells. [Related pubchem assays: 1829 (Project Summary), 1814 (Primary HTS)]. The format is functional.
Another series concerns H4. As to the kind of experiment: Luminescence Cell-Based Dose Response HTS to Identify Activators of 5'UTR Stem-Loop Driven Prion Protein mRNA Translation in H4 Neuroglioblastoma Cells. [Related pubchem assays: 1829 (Project Summary), 1814 (Primary HTS)]. The format is functional. The note with it: Homo sapiens.
Series [3] addresses T1, Heat shock factor protein 1 (Mus musculus, UniProt P38532).
T1 sequence (P38532 whole entry): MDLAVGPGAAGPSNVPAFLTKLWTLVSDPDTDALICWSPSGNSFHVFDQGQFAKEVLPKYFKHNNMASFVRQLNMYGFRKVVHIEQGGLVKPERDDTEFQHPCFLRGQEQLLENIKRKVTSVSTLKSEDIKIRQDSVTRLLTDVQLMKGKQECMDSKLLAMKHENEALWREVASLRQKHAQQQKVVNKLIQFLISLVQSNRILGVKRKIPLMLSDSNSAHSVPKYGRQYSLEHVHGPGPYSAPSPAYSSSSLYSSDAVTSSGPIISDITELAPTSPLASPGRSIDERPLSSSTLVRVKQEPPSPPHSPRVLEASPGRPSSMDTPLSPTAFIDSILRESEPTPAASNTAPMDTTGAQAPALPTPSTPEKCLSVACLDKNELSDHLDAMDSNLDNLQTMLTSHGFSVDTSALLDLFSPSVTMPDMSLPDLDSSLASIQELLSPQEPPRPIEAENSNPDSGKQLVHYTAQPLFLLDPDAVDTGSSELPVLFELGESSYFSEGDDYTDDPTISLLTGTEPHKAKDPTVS
As to the kind of experiment: HSF1 potentiators in luciferase reporter cells, confirmation, cell-based, NIH3T3, luminescence, dose retest (AID 435004).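 Note: stress induced by proteasome inhibitor MG132 added 30 min after compound; luciferase reporter driven by HSF1 response element in NIH3T3 cells; actives raise luminescence as potentiators of the MG132 stress response.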 In kind it is functional.

Another series has as its target Cytochrome P450 2C19 (Homo sapiens, UniProt P33261). Description: Cytochrome panel assay with activity outcomes. Panel member name: p450-cyp2c19 Compounds with AC50 equal or less than 10 uM are considered active. The format is functional.
The target of the next series is Cytochrome P450 2C9 (Homo sapiens, UniProt P11712).
Another series has as its target T2, Cytochrome P450 1A2 (Homo sapiens, UniProt P05177).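 Note: PubChem cytochrome P450 panel assay, CYP1A2 panel member.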
T2 sequence (P05177 whole entry): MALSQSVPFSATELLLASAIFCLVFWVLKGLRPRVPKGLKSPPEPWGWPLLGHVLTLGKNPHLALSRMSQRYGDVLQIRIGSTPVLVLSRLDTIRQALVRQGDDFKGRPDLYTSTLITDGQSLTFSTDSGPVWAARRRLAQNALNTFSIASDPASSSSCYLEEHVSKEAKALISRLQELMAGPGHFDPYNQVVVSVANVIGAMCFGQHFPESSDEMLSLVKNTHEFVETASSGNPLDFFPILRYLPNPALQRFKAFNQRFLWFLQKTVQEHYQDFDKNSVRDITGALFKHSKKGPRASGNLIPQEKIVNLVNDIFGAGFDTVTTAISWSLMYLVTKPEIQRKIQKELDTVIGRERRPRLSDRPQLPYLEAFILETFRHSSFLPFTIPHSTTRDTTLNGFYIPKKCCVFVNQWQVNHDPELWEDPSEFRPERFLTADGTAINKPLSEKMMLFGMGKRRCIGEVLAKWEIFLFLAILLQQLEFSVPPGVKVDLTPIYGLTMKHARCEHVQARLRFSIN

The target in the next series is Cytochrome P450 3A4 (Homo sapiens, UniProt P08684).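 Note: CYP3A4 tested as one member of a cytochrome P450 panel screen.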
Series [4] concerns the target T1, Heat shock factor protein 1. Description: inhibition of MG132-induced HSE-luciferase signal, confirmation, cell-based, NIH3T3, luminescence, dose retest (AID 2382).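 Note: NIH3T3 fibroblasts with HSF1-driven luciferase reporter stressed by proteasome inhibitor MG132; luminescence from HSF1-driven luciferase expression after 8 hours of MG132 stress.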 The format is functional.

Activity calls are given as the source filed them.

Cytochrome P450 3A4, sequence (P08684 whole entry): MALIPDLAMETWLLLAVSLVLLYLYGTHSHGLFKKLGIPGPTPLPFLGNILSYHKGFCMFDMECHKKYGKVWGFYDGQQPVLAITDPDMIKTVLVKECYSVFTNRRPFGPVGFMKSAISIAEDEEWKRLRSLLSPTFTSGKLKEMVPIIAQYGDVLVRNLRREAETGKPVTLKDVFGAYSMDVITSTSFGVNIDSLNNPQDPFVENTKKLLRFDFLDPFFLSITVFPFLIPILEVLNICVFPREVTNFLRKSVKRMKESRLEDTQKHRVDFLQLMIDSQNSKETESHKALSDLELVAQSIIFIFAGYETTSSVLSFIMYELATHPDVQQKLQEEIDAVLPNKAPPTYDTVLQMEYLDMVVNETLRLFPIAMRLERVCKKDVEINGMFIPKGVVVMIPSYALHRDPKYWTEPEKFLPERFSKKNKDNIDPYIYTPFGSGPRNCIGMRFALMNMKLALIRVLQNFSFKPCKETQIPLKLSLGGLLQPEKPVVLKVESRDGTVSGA
Cytochrome P450 2C9, sequence (P11712 whole entry): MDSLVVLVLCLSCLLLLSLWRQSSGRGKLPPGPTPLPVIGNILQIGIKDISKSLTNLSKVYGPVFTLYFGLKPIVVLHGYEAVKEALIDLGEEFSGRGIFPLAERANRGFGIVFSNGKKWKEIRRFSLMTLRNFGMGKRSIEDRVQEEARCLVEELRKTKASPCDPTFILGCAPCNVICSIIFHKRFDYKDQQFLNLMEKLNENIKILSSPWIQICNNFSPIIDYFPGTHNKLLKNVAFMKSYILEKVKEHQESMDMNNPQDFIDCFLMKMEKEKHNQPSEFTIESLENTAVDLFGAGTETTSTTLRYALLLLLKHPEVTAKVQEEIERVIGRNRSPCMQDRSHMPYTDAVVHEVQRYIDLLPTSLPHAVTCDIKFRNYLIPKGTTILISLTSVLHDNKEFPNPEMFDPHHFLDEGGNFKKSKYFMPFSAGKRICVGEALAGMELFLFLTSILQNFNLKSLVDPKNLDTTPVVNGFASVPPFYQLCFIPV
Cytochrome P450 2C19, sequence (P33261 whole entry): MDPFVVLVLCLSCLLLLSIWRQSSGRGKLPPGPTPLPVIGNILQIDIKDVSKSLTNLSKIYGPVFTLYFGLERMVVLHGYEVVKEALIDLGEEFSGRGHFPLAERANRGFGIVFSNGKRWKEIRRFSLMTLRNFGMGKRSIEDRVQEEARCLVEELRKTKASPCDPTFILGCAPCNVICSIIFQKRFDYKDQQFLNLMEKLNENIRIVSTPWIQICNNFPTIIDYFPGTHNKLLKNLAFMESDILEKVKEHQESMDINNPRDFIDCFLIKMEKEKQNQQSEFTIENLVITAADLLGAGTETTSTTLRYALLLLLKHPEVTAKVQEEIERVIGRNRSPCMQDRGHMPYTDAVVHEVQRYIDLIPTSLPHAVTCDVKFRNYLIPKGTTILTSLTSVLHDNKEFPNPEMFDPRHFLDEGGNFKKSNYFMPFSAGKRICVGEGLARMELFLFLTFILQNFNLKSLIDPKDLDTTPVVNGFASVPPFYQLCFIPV

One may read the EC50 as the concentration needed to bring the measured effect to its halfway point. For `C/C(CC(=O)Nc1cc(C)cc(C)c1)=N\NC(=O)c1ccccn1`, the EC50 in [1] was > 120 µM (not active); in [2], > 120 µM (not active); with H4, 42.2 µM (active). Take `Cc1cc(-c2nc3ncccc3o2)ccc1NC(=S)NC(=O)C(C)C`: the EC50 in series [3] is > 260 µM (inactive). As for `COc1ccc(NCc2nnc(SCC(=O)c3ccc(OC)cc3)n2C)cc1`, the EC50 (in [1]; in series [2]; in the series with H4) was > 120 µM (not active) in each case. In general, AC50 refers to the midpoint of the concentration-response curve, whichever way the signal moves. Take `Cc1cc(C)c(C#N)c(Oc2ccccc2)n1`: the AC50 at Cytochrome P450 2C19 (read-out: AC50) was 11.2 µM (inconclusive). In the case of `COc1ccc(-c2nc(C#N)c(N3CCCCC3)o2)cc1`, in series [3], the EC50 is > 260 µM (inactive). Still for that read-out and setting: the value for `N#CC1=C(N)N2C(=C(C#N)C13CCCCC3)SC1CCCCC12O` (stereo not given) was > 260 µM (inactive). Regarding `Cn1sc(NC(=O)c2ccccc2Cl)nc1=O`, at Cytochrome P450 2C9, the AC50 is 17.8 µM (inconclusive). With `O=C(CNC(=O)C1CCCCC1)OCC(=O)c1ccc(Br)cc1`, the EC50 in series [3] was > 260 µM (inactive).

Take `COCCn1c(=O)c(-c2cccc(C#N)c2)nc2cnc(OCc3ccccc3)nc21`: the AC50 result on Cytochrome P450 2C19 is “inconclusive”; at Cytochrome P450 1A2, 12.6 µM (inconclusive). Turning to `O=C(OCc1nc2ccccc2s1)C1CCN(C2=NS(=O)(=O)c3ccccc32)CC1`, the EC50 in series [1] was 24 µM (active); in series [2], 24.8 µM (active); in the series on H4 it was 21.9 µM (active). For the molecule `CC1(C)O[C@@H]2C[C@H]3[C@H]4C[C@H](F)C5=CC(=O)C=C[C@@]5(C)[C@@H]4[C@H](O)C[C@]3(C)[C@]2(C(=O)CO)O1`, the AC50 entry is “inconclusive” on Cytochrome P450 2C19 and 12.6 µM (inconclusive) at Cytochrome P450 3A4.

For the molecule `CCCC(C(=O)NCc1ccco1)N(C(=O)CNS(=O)(=O)c1ccc(Cl)cc1)C1CCCC1` (stereo not given), the EC50 in [3] was > 260 µM (inactive). Consider `O=[N+]([O-])c1cccc(/C(=N/N=C/c2ccccc2Br)C23CN4CN(CN(C4)C2)C3)c1`, for which the AC50 was 14.1 µM (inconclusive) at Cytochrome P450 2C19 (read-out: AC50), 22.4 µM (inconclusive) on Cytochrome P450 1A2, 31.6 µM (inconclusive) on Cytochrome P450 3A4 and 35.5 µM (inconclusive) at Cytochrome P450 2C9.

As for `CSc1ccc(C(=O)C2CCCN(Cc3cccnc3)C2)cc1` (stereo not given), the EC50 in series [3] was > 260 µM (inactive). On to `CCCN(CCC)CCCNC(=O)C[S+]([O-])Cc1nc(-c2ccc(OC)c(OC)c2)oc1C` (stereo not given), for which the EC50 in series [3] was > 260 µM (inactive). The AC50 at Cytochrome P450 1A2 was 3.16 µM (inconclusive); on Cytochrome P450 3A4, 7.94 µM (inconclusive); at Cytochrome P450 2C9 it was 39.8 µM (inconclusive). Consider `CCOc1ccc(-n2ccnc2SCC(=O)Nc2nnc(C)s2)cc1`, for which the concentration at half-maximal activity (AC50) is 25.1 µM (inconclusive) on Cytochrome P450 1A2 and 11.2 µM (inconclusive) at Cytochrome P450 2C9. On to `C=C1S/C(=N/c2ccccc2Cl)N(C(=O)c2sc3ccccc3c2Cl)C1(C)C`, for which, in series [3], the EC50 is > 260 µM (inactive). Regarding `CC(C)c1cccc2nc3c(c([Si](C)(C)C(C)(C)C)c12)Cn1c-3cccc1=O`, the AC50 is 25.1 µM (inconclusive) at Cytochrome P450 1A2 and 39.8 µM (inconclusive) on Cytochrome P450 2C9. For the molecule `COCCCNC(=O)C1CC(=O)N(Cc2ccc(OC)cc2)C1` (stereo not given), the AC50 was 22.4 µM (inconclusive) at Cytochrome P450 2C19 (read-out: AC50) and 20 µM (inconclusive) on Cytochrome P450 3A4. Consider `CC1(C)CC(=O)C2=C(C1)N(c1ccc(F)cc1)C(N)=C(C#N)C2c1cccs1` (stereo not given), for which the AC50 on Cytochrome P450 2C19 (read-out: AC50) is 39.8 µM (inconclusive); on Cytochrome P450 2C9 it was 10 µM (inconclusive). Take `CC1(C)C(=O)C(c2ccccc2)=C2CN3C(=O)N(CCc4ccccc4)C(=O)C3(Cc3ccccc3)C=C21` (stereo not given): the results for the AC50 on Cytochrome P450 1A2 and on Cytochrome P450 2C9 were 6.31 µM (inconclusive) and 12.6 µM (inconclusive), respectively. In the case of `O=C(Cn1cnc2c(oc3ccccc32)c1=O)c1ccccc1`, the results for the EC50 (in series [1]; in series [2]; in the series on H4) were 104 µM (active), 29.6 µM (active) and > 120 µM (not active), respectively. On to `COC(=O)c1cc(OC)c(OC)cc1NC(=S)NC(=O)c1ccco1`, for which the EC50 in series [3] was 28.2 µM (active). With `O=P(Nc1c(Cl)cccc1Cl)(c1ccccc1)c1nc2c(s1)CCCC2` (stereo not given), the AC50 at Cytochrome P450 2C19 (read-out: AC50) was 20 µM (inconclusive); at Cytochrome P450 2C9, 17.8 µM (inconclusive). For `CC1CCN(C(=O)Cn2nnc(-c3cccs3)n2)CC1`, the EC50 in series [1] was 4.67 µM (active); in series [2], 59.7 µM (active); in the series with H4, 23.4 µM (active). Turning to `CCOc1ccc(N2C(=O)CN=C2Nc2ccccc2F)cc1`, the AC50 at Cytochrome P450 2C19 (read-out: AC50) is 25.1 µM (inconclusive); on Cytochrome P450 1A2 it was 15.8 µM (inconclusive). Consider `COc1ccc(C(=O)NC(C)c2cc(OC)c(OC)cc2Br)cc1` (stereo not given), for which the AC50 at Cytochrome P450 2C19 (read-out: AC50) is 39.8 µM (inconclusive). For `COc1ccccc1CNc1cc(-c2cccc(C#N)c2)ncn1`, the AC50 is 6.31 µM (inconclusive) at Cytochrome P450 2C19 (read-out: AC50) and 25.1 µM (inconclusive) on Cytochrome P450 3A4. As to `COc1ccccc1C(=O)OCC(=O)c1cccc([N+](=O)[O-])c1`, the EC50 in series [4] is recorded as > 195 µM (not active). Turning to `CC(NC(=O)c1ccc(C(C)(C)C)cc1)C(c1cccs1)N1CCOCC1` (stereo not given), the EC50 in series [3] is > 260 µM (inactive). As for `CN1CCN(S(=O)(=O)c2cccc(C(=O)NCCC3=CCCCC3)c2)CC1`, in series [4], the EC50 is > 195 µM (not active).

On to `O=C(c1ccncc1)N1CCC2(CC1)CCN(c1ccccc1)CC2`, for which, at Cytochrome P450 2C19 (read-out: AC50), the AC50 is 39.8 µM (inconclusive). Take `CC(C)Cc1ccc(C#N)c(SCC(N)=O)n1`: the EC50 in [4] is reported as > 195 µM (not active). As for `CC(C)C(=O)N1c2ccccc2N=C2CCCC(O)=C2C1c1ccc(N(C)C)cc1` (stereo not given), the EC50 in series [4] was > 195 µM (not active). In the case of `Clc1ccccc1CSc1ncn(-c2ccccc2)n1`, the EC50 in [1] was 0.191 µM (active); in series [2], 0.42 µM (active); in the series with H4, 36.9 µM (active). With `CCOC(=O)C1C(=O)OC(C)(C)C1C(C)C(=O)c1ccc(C)cc1C` (stereo not given), the EC50 in [3] is > 260 µM (inactive).

Take `COc1cccc(Nc2ncc3nc(-c4ccccc4)c(=O)n(C4CC4)c3n2)c1`: the AC50 on Cytochrome P450 2C9 is 10 µM (inconclusive). For `OCCC1CN(Cc2cccc(-n3cccn3)c2)CCN1Cc1ccccc1` (stereo not given), the half-maximal effective concentration (EC50) in series [4] is > 195 µM (not active).

`O=C(CSCc1cccc(Cl)c1)N/N=C/c1ccc(OCC(=O)N2CCCCC2)cc1`: the values for the AC50 on Cytochrome P450 1A2 and at Cytochrome P450 2C9 were 20 µM (inconclusive) and 22.4 µM (inconclusive), respectively. Take `CCc1cccc(CC)c1NC(=O)CN(CC(=O)O)CC(=O)O` [ETIFENIN]: on Cytochrome P450 2C19, the half-maximal activity concentration (AC50) result is “inconclusive”. Consider `O=C(c1ccc(Oc2ccc(C(F)(F)F)cn2)cc1)N1CCN(c2ccccc2)CC1`, for which the AC50 at Cytochrome P450 3A4 is 14.1 µM (inconclusive); on Cytochrome P450 2C9, 25.1 µM (inconclusive). The matching figures for `CCOC(=O)N1CCN(C(=O)CNS(=O)(=O)c2cccs2)CC1`: 14.1 µM (inconclusive) and 3.98 µM (inconclusive). For the molecule `O=C(Nc1cccc(Cl)c1)N(Cc1nc(O)c2ccccc2n1)C1CCCC1`, in series [3], the EC50 was > 260 µM (inactive). As for `O=C(O)c1cc(S(=O)(=O)N(Cc2ccccc2)c2ccccc2Cl)ccc1Cl`, in series [4], the EC50 is > 195 µM (not active). With `CS(=O)(=O)N1CCCC(C(=O)N2CCc3ccccc3C2)C1` (stereo not given), the AC50 on Cytochrome P450 2C19 (read-out: AC50) is 35.5 µM (inconclusive); on Cytochrome P450 1A2, 25.1 µM (inconclusive); at Cytochrome P450 3A4, 17.8 µM (inconclusive). On to `O=C1CC(N2CCC(c3nc4ccccc4[nH]3)CC2)C(=O)N1c1ccccc1F` (stereo not given), for which the EC50 in series [3] was > 260 µM (inactive).

For the molecule `COC(=O)C1CSC(C(=O)OC)N1C(=O)Nc1c(C)cccc1C` (stereo not given), at Cytochrome P450 2C9, the half-maximal activity concentration (AC50) is 25.1 µM (inconclusive).
